# Results: PMC4234445 (ACS Medicinal Chemistry Letters, 2014)
# Entries after “also recorded” stand apart in the source; their conditions may differ.
# Legend:
# MV-4;11 (FLT3-ITD) cells = assay: CellTiter-Blue cell viability assay in MV-4; assay type: cell-based, human
# MYC = assay: Western blot of STAT5 transcriptional target MYC in K562 cells; assay type: cell-based, human; details: 5 h
# [1] = system: healthy human CD34+ umbilical cord cells; assay: Cell viability in healthy human CD34+ umbilical cord cells; assay type: cell-based
# JAK1/2, ABL, and FLT-3 = assay: DiscoveRx KINOMEscan, upstream STAT5 activating kinases; assay type: binding; details: 5 μM
# pSTAT3 = assay: Western blot of pSTAT3 in MDA-MB-231 cells; assay type: cell-based
# K562 cells = assay: Western blot of apoptosis markers; assay type: cell-based, human; details: 24 h, 15 μM
# [2] = system: phosphorylated STAT5 (Y694); assay: Western blot of phosphorylated STAT5; assay type: cell-based, human; details: K562 cells, 5 h treatment
# MCL-1 = assay: Western blot of STAT5 transcriptional target MCL-1 in K562 cells; assay type: cell-based, human; details: 24 h, 15 μM
smiles,measurement,setting,value
CC(C)(C)c1cc(CN(C(=O)CN(Cc2ccc(Cl)cc2)S(=O)(=O)c2c(F)c(F)c(F)c(F)c2F)c2ccc(C(=O)O)c(O)c2)cc(C(C)(C)C)c1 [13a],cell viability of MV4-11 cells,MV-4;11 (FLT3-ITD) cells; 10 μM,abolished
same,IC50,"MV-4;11 (FLT3-ITD) cells; Homo sapiens, MV4-11, 72 h, read-out: IC50, cell viability MV4;11",3.5 µM
same,MYC (c-Myc) expression,MYC,dose-dependent decreases; also recorded: Knockdown
same,difference in sensitivity CD34+ vs MV4-11 (therapeutic window),[1],approximate order of magnitude
same,cell viability of healthy CD34+ cells,[1]; 10 μM,little reduction in cell viability; also recorded: limited effect on cell viability
same,"effect against upstream STAT5 activating kinases JAK1/2, ABL, FLT-3","JAK1/2, ABL, and FLT-3",negligible effects
same,pSTAT3 inhibition,"pSTAT3; MDA-MB-231, doses corresponding to pSTAT5 inhibition in leukemic cell line",not inhibited
same,effect on pSTAT3,"pSTAT3; MDA-MB-231 cells, up to 20 μM",no effect
same,"cell death / apoptosis (cleaved PARP-1, Caspase-3)",K562 cells,undergo cell death; also recorded: Initiation of apoptosis
same,concentration at which pSTAT5 is ablated,[2],above 10 μM
same,pSTAT5 (Y694) levels,[2],decreased pSTAT5 in a dose dependent manner
same,MCL-1 expression,MCL-1,complete knockdown
